# Source: patent US20210401926A1, “PHARMACEUTICAL FORMULATIONS OF PEPTIDE INHIBITORS” (CANIMGUIDE THERAPEUTICS AB, priority 2018, published 2021)
# Where no end group is shown, it is not given here.
# Assays:
# PBMCs [1] = assay: PBMC activation (CD69) in culture medium containing cancer sera; assay type: cell-based; conditions: sera from dogs with cancer or human patients with cancer instead of normal AB serum
# Procedure: FIG. 3 is a graph illustrating a comparison of the full length peptide P28R and the 6 amino acid “P28 core” sequence (32230, FFVKLS, SEQ ID NO: 1) in culture medium containing sera from two different cancer patients (“human ca serum 1” 430 and (“human ca serum 2” 432).
# Additionally, P28R and P28 core were tested for their ability to alleviate immunosuppression in cancer cells.
# healthy PBMC's = assay: PBMC activation, CD69 or CD71 by flow cytometry, normal human AB serum; assay type: cell-based; conditions: 40 μg/mL, 24 hours, RPMI plus 10% human AB serum
# Procedure: FIG. 2A-B are a series of graphs illustrating effects of the full length peptide P28R and the 6 amino acid central sequence (32230, FFVKLS, SEQ ID NO: 1) in culture medium containing normal human AB serum. Activation is determined as percentage of cells with enhanced marker CD69 or CD71 using flow cytometry. PBMCs were incubated with the peptides (40 μg/mL) for 24 hours in RPMI plus 10% human AB serum. FIG. 2A illustrates the results of two experiments (420 and 422) performed for each peptide. FIG. 2B illustrates the results of two experiments (424 and 426) performed for each peptide.
# P28R (SEQ ID NO: 2) can stimulate PBMC's from healthy controls in short term cultures when RPMI plus 10% normal human AB serum is used as culture medium. Truncations of P28R were also assessed for their ability to activate PBMC's. PBMCs were incubated with the peptides (40 μg/mL) for 24 hours in RPMI plus 10% human AB serum. PBMC activation was measured as percent cells with enhanced expression of either CD69 (FIG. 2A) or CD71 (FIG. 2B) using flow cytometry. Two experiments were performed for each peptide.
# A test for direct stimulatory effects on immune cells was performed.
# PBMCs [2] = assay: Direct binding to PBMCs (immunocytochemistry, rosetting of coated beads); conditions: immunocytochemistry or rosetting of coated beads
Substance,PBMC activation (enhanced expression of CD69) (PBMCs [1]),PBMC activation (enhanced expression of CD69 or CD71) (healthy PBMC's),binding to PBMCs (PBMCs [2])
FFVKLS (Peptide 32230),activated PBMCs,did not activate healthy PBMC's,–
"biotinylated P28R: biotinylated P28R (KKLDTFFVKLSLFTER; also: biotinylated, site not given here)",–,–,bind directly to PBMCs
"peptide 32251: truncation of P28R, SEQ ID NO: 4 (KKLDTFFPKLSLFTER; Peptide 32251)",–,did not activate healthy PBMC's,–
